Assay results reported in US12570642B2, “GLP-IR modulating compounds” (Gilead Sciences, Inc., priority 2021, dated 2026).

Each molecule was assayed against GLP-1R (Homo sapiens, UniProt P43220) (assay: GLP-1R Activation - cAMP Assay). Details: […]; each compound run on one of the two cAMP assays (Assay 1 or Assay 2, not specified).
Format: cell-based
In short: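 CHO cells stably expressing GLP-1R, plated at 1,000 cells/well overnight, then equilibrated 1 h in HBSS with 20 mM Hepes and 0.1% BSA. Agonist added as 10-point dose response for 30 min at 37 °C. cAMP measured by HTRF (Cisbio Gs Dynamic kit); EC50 from sigmoidal fit.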

Chain of GLP-1R (P43220 24-463): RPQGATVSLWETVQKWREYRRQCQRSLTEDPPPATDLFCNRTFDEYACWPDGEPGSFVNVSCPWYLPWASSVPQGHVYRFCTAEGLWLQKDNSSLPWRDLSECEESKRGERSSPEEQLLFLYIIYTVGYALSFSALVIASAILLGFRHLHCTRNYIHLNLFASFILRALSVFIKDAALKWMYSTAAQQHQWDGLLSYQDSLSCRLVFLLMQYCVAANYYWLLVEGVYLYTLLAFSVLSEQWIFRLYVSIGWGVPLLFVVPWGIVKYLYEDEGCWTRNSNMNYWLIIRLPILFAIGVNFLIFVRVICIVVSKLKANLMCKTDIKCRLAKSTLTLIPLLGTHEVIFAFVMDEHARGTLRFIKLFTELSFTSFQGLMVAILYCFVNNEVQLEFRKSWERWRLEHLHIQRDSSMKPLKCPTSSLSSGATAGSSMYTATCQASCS

SMILES	EC50 [nM]
CC(=O)N1C[C@@H](F)[C@H](n2c(Cc3cc(F)c(-c4cccc(OCc5ccc(C#N)cc5F)n4)cc3F)nc3ccc(C(=O)O)cc32)C1 [Example 40]	155

Same assay, conditions: cAMP increase in CHO cells stably expressing GLP-1R; each compound run on one of the two cAMP assays (Assay 1 or Assay 2, not specified)

SMILES	EC50 [nM]
COCCn1c(Cc2cc(F)c(-c3cccc(OCc4ccc(OC(F)(F)F)cc4)n3)cc2F)nc2ccc(C(=O)O)cc21 [Example 32, 2-(2,5-difluoro-4-(6-((4-(trifluoromethoxy)benzyl)oxy)pyridin-2-yl)benzyl)-1-(2-methoxyethyl)-1H-benzo[d]imidazole-6-carboxylic Acid]	3.43
COCCn1c(Cc2cc(F)c(-c3cccc(OCc4ccc(C(F)(F)F)nc4C)n3)cc2F)nc2ccc(C(=O)O)cc21 [Example 33, 2-(2,5-difluoro-4-(6-((2-methyl-6-(trifluoromethyl)pyridin-3-yl)methoxy)pyridin-2-yl)benzyl)-1-(2-methoxyethyl)-1H-benzo[d]imidazole-6-carboxylic Acid]	2.58
COCCn1c(Cc2cc(F)c(-c3cccc(OCc4ccc(C(F)(F)F)nc4Cl)n3)cc2F)nc2ccc(C(=O)O)cc21 [Example 34, 2-(4-(6-((2-chloro-6-(trifluoromethyl)pyridin-3-yl)methoxy)pyridin-2-yl)-2,5-difluorobenzyl)-1-(2-methoxyethyl)-1H-benzo[d]imidazole-6-carboxylic Acid]	3.25
COCCn1c(Cc2cc(F)c(-c3cccc(OCc4ccc(OCC(F)(F)F)nc4)n3)cc2F)nc2ccc(C(=O)O)cc21 [Example 35, 2-(2,5-difluoro-4-(6-((6-(2,2,2-trifluoroethoxy)pyridin-3-yl)methoxy)pyridin-2-yl)benzyl)-1-(2-methoxyethyl)-1H-benzo[d]imidazole-6-carboxylic Acid]	2.67
COCCn1c(Cc2cc(F)c(-c3cccc(OCc4cnc(-c5cnn(C(F)F)c5)cn4)n3)cc2F)nc2ccc(C(=O)O)cc21 [Example 36]	1.04
COCCn1c(Cc2cc(F)c(-c3cccc(OCc4cnc(-c5cn(C)nn5)cn4)n3)cc2F)nc2ccc(C(=O)O)cc21 [Example 37, 2-(2,5-difluoro-4-(6-((5-(1-methyl-1H-1,2,3-triazol-4-yl)pyrazin-2-yl)methoxy)pyridin-2-yl)benzyl)-1-(2-methoxyethyl)-1H-benzo[d]imidazole-6-carboxylic Acid]	1.97
COCCn1c(Cc2cc(F)c(-c3cccc(OCc4cnc(-c5cnn(C)c5)cn4)n3)cc2F)nc2ccc(C(=O)O)cc21 [Example 38, 2-(2,5-difluoro-4-(6-((5-(1-methyl-1H-pyrazol-4-yl)pyrazin-2-yl)methoxy)pyridin-2-yl)benzyl)-1-(2-methoxyethyl)-1H-benzo[d]imidazole-6-carboxylic Acid]	4.02
COCCn1c(Cc2cc(F)c(-c3cccc(OCc4ncc(C#N)cc4F)n3)cc2F)nc2ccc(C(=O)O)cc21 [Example 39]	8.98
COCCn1c(Cc2cc(F)c(-c3cc(C(F)F)cc(OCc4ccc(C#N)cc4F)n3)cc2F)nc2ccc(C(=O)O)cc21 [Example 41]	4.88
COCCn1c(Cc2cc(F)c(-c3cc(Cl)cc(OCc4ccc(C#N)cc4F)n3)cc2F)nc2ccc(C(=O)O)cc21 [Example 42, 2-(4-(4-chloro-6-((4-cyano-2-fluorobenzyl)oxy)pyridin-2-yl)-2,5-difluorobenzyl)-1-(2-methoxyethyl)-1H-benzo[d]imidazole-6-carboxylic Acid]	4.25
COCCn1c(Cc2cc(F)c(-c3cc(OC)cc(OCc4ccc(C#N)cc4F)n3)cc2F)nc2ccc(C(=O)O)cc21 [Example 43, 2-(4-(6-((4-cyano-2-fluorobenzyl)oxy)-4-methoxypyridin-2-yl)-2,5-difluorobenzyl)-1-(2-methoxyethyl)-1H-benzo[d]imidazole-6-carboxylic Acid]	20.8
COCCn1c(Cc2cc(F)c(-c3cc(O)cc(OCc4ccc(C#N)cc4F)n3)cc2F)nc2ccc(C(=O)O)cc21 [Example 44, 2-(4-(6-((4-cyano-2-fluorobenzyl)oxy)-4-hydroxypyridin-2-yl)-2,5-difluorobenzyl)-1-(2-methoxyethyl)-1H-benzo[d]imidazole-6-carboxylic Acid]	0.81
COCCn1c(Cc2cc(F)c(-c3cc(N)nc(OCc4ccc(C#N)cc4F)n3)cc2F)nc2ccc(C(=O)O)cc21 [Example 45, 2-(4-(6-amino-2-((4-cyano-2-fluorobenzyl)oxy)pyrimidin-4-yl)-2,5-difluorobenzyl)-1-(2-methoxyethyl)-1H-benzo[d]imidazole-6-carboxylic Acid]	16.7
COCCn1c(Cc2ccc(-c3cccc(OCc4ccc(C#N)cc4F)c3)nc2)nc2ccc(C(=O)O)cc21 [Example 46]	20.9
CC(C)(O)C#Cc1cc(C(=O)O)cc2c1nc(Cc1cc(F)c(-c3cccc(OCc4ccc(C#N)cc4F)n3)cc1F)n2C1COCC1(C)C (stereo not drawn) [Example 47]	0.78
CC1(C)COCC1n1c(Cc2cc(F)c(-c3cccc(OCc4ccc(C#N)cc4F)n3)cc2F)nc2c(C#CC3CC3)cc(C(=O)O)cc21 (stereo not drawn) [Example 48, 2-(4-(6-((4-cyano-2-fluorobenzyl)oxy)pyridin-2-yl)-2,5-difluorobenzyl)-4-(cyclopropylethynyl)-1-(4,4-dimethyltetrahydrofuran-3-yl)-1H-benzo[d]imidazole-6-carboxylic Acid]	0.21
COCCn1c(Cc2nc(N)c(-c3cccc(OCc4ccc(C#N)cc4F)n3)cc2F)nc2ccc(C(=O)O)cc21 [Example 49]	45.6
COCCn1c(Cc2c(F)cc(-c3cccc(OCc4ccc(C#N)cc4F)n3)c3nccn23)nc2ccc(C(=O)O)cc21 [Example 50]	5.24

SMILES	EC50 [nM]
COCCn1c(C(F)c2cc(F)c(-c3cccc(OCc4ccc(C#N)cc4F)n3)cc2F)nc2ccc(C(=O)O)cc21 (stereo not drawn) [Example 51]	0.83
COCCn1c(C(F)(F)c2cc(F)c(-c3cccc(OCc4ccc(C#N)cc4F)n3)cc2F)nc2ccc(C(=O)O)cc21 [Example 52]	21.3
COCCn1c(Cc2c(F)cc(-c3cccc(OCc4ccc(C#N)cc4F)n3)c3ncnn23)nc2ccc(C(=O)O)cc21 [Example 53]	5.11
COCCn1c(C(CO)c2cc(F)c(-c3cccc(OCc4ccc(C#N)cc4F)n3)cc2F)nc2ccc(C(=O)O)cc21 (stereo not drawn) [Example 54]	31.6
COCCn1c(Cc2cc(F)c(-c3cccc(OCc4ccc(C#N)cc4F)n3)cc2F)nc2c(-c3cncnc3)cc(C(=O)O)cc21 [Example 55]	25.8
COCCn1c(Cc2cc(F)c(-c3cccc(OCc4ccc(C#N)cc4F)n3)cc2F)nc2c(-c3cnn(CCN4CCOCC4)c3)cc(C(=O)O)cc21 [Example 56, 2-(4-(6-((4-cyano-2-fluorobenzyl)oxy)pyridin-2-yl)-2,5-difluorobenzyl)-1-(2-methoxyethyl)-4-(1-(2-morpholinoethyl)-1H-pyrazol-4-yl)-1H-benzo[d]imidazole-6-carboxylic Acid]	903
Cn1cc(-c2cc(F)c(COc3cccc(-c4cc(F)c(Cc5nc6ccc(C(=O)O)cc6n5[C@H]5COCC5(C)C)cc4F)n3)cn2)cn1 [Example 57]	2.06
CC1(C)COC[C@@H]1n1c(Cc2cc(F)c(-c3cccc(OCc4ccc(C#N)cc4F)n3)cc2F)nc2ccc(C(=O)O)cc21 [Example 59]	0.32
COCCn1c(Cc2cc(F)c(-c3cccc(OCc4ccc(-n5ccnc5)cc4F)n3)cc2F)nc2ccc(C(=O)O)cc21 [Example 61]	0.83
N#Cc1ccc(COc2cccc(-c3cc(F)c(Cc4nc5ccc(C(=O)O)cc5n4C4CC45CC5)cc3F)n2)c(F)c1 (stereo not drawn) [Example 62]	7.32
N#Cc1ccc(COc2cccc(-c3cc(F)c(Cc4nc5ccc(C(=O)O)cc5n4C4CCCC45CC5)cc3F)n2)c(F)c1 (stereo not drawn) [Example 63, 2-(4-(6-((4-cyano-2-fluorobenzyl)oxy)pyridin-2-yl)-2,5-difluorobenzyl)-1-(spiro[2.4]heptan-4-yl)-1H-benzo[d]imidazole-6-carboxylic Acid]	2.55
N#Cc1ccc(COc2cccc(-c3cc(F)c(Cc4nc5ccc(C(=O)O)cc5n4C4CCC45CC5)cc3F)n2)c(F)c1 (stereo not drawn) [Example 64, 2-(4-(6-((4-cyano-2-fluorobenzyl)oxy)pyridin-2-yl)-2,5-difluorobenzyl)-1-(spiro[2.3]hexan-4-yl)-1H-benzo[d]imidazole-6-carboxylic Acid]	1.28
CO[C@@H]1CC[C@@H]1n1c(Cc2cc(F)c(-c3cccc(OCc4ccc(C#N)cc4F)n3)cc2F)nc2ccc(C(=O)O)cc21 [Example 65, 2-(4-(6-((4-cyano-2-fluorobenzyl)oxy)pyridin-2-yl)-2,5-difluorobenzyl)-1-((1S,2R)-2-methoxycyclobutyl)-1H-benzo[d]imidazole-6-carboxylic Acid]	5.05
N#Cc1ccc(COc2cccc(-c3cc(F)c(Cc4nc5ccc(C(=O)O)cc5n4C45COC(C4)C5)cc3F)n2)c(F)c1 [Example 66, 1-(2-oxabicyclo[2.1.1]hexan-4-yl)-2-(4-(6-((4-cyano-2-fluorobenzyl)oxy)pyridin-2-yl)-2,5-difluorobenzyl)-1H-benzo[d]imidazole-6-carboxylic Acid]	12.9
N#Cc1ccc(COc2cccc(-c3cc(F)c(Cc4nc5ccc(C(=O)O)cc5n4N4CCCC4)cc3F)n2)c(F)c1 [Example 67, 2-(4-(6-((4-cyano-2-fluorobenzyl)oxy)pyridin-2-yl)-2,5-difluorobenzyl)-1-(pyrrolidin-1-yl)-1H-benzo[d]imidazole-6-carboxylic Acid]	7.25
N#Cc1ccc(COc2cccc(-c3cc(F)c(Cc4nc5ccc(C(=O)O)cc5n4C4COC5CC4C5)cc3F)n2)c(F)c1 (stereo not drawn) [Example 68, 1-(2-oxabicyclo[3.1.1]heptan-4-yl)-2-(4-(6-((4-cyano-2-fluorobenzyl)oxy)pyridin-2-yl)-2,5-difluorobenzyl)-1H-benzo[d]imidazole-6-carboxylic Acid]	0.33
N#Cc1ccc(COc2cccc(-c3cc(F)c(Cc4nc5ccc(C(=O)O)cc5n4C45COCC4C5)cc3F)n2)c(F)c1 (stereo not drawn) [Example 69, 1-(3-oxabicyclo[3.1.0]hexan-1-yl)-2-(4-(6-((4-cyano-2-fluorobenzyl)oxy)pyridin-2-yl)-2,5-difluorobenzyl)-1H-benzo[d]imidazole-6-carboxylic Acid]	13.8
